# From paper PMC3529809 (Steroids, 2012)
# Values joined by “and” are separate entries in the source; they are usually repeats but may differ in a detail not shown here. Identical values can stand only once. “Also recorded” adds a separate entry of the source.
# Assays:
# human ERβ [1] = molecular target: T1, human ERβ (Homo sapiens, UniProt Q92731); test: ERELUC transient transfection reporter assay, ERβ in HepG2 cells; assay type: cell-based; details: for effect on ERβ-mediated induction of ERELUC by E2, DHEA, 7-oxo-DHEA, ADIOL and ADIONE: 1 µM ICI, 100 nM 4-OHT, 1 µM R,R-THC, 5 µM sterol, Fig. 3B; for ERELUC activity in ERβ-expressing HepG2 cells: 5 µM, 24 h, Fig. 1B, result in words
# hERα [2] = molecular target: T2, hERα (Homo sapiens, UniProt P03372); test: [3H] E2 ligand binding competition; details: for ERα binding / competition with E2: result in words
# human ERβ [3] = molecular target: T1, human ERβ; test: [3H] E2 ligand binding competition; details: IC50 for ERβ, competition with 30 nM [3H] E2, Fig. 6B
# hERα [4] = molecular target: T2, hERα; test: ERELUC transient transfection reporter assay, ERα in HEK-293 cells; assay type: cell-based; details: for ERα agonist activity in ERELUC assay: result in words
# [5] = test system: TFF1 (pS2), PGR (PR), CTSD (cathepsin D) transcription; test: QRT-PCR of endogenous ER-target genes in ERα-transfected HEK-293 cells; assay type: cell-based, human; details: 10 nM E2 or 5 µM sterol, 24 h, Fig. 5A
# NRF1 (NRF-1) expression = test: QRT-PCR of NRF1 in ERβ-transfected HepG2 cells; assay type: cell-based, human; details: 10 nM E2 or 5 µM sterol, 24 h, Fig. 5B
# [6] = test system: MCF-7 human breast cancer cells; test: Cell proliferation BrdU assay; assay type: cell-based; details: for MCF-7 cell proliferation: 48 h BrdU, 10 nM E2, 5 µM sterols, Fig. 7
# MCF-7 cells = details: cited from earlier work; for proliferation of MCF-7 cells: 1–10 µM concentrations; for MCF-7 cell proliferation: less than E2
# hERα [7] = molecular target: T2, hERα; assay type: cell-based; details: Supplemental Fig. 1
# ERα [8] = details: 0.1 µM, HEK-293; cited from earlier work
# ERβ [9] = details: 0.1 µM, HEK-293; cited from earlier work
# ERα [10] = details: 50 µM, COS cells; cited from earlier work
# ERβ [11] = details: 50 µM, COS cells; cited from earlier work
# [12] = MEK1/2 inhibitor, data not shown
# T1 sequence (Q92731 whole entry): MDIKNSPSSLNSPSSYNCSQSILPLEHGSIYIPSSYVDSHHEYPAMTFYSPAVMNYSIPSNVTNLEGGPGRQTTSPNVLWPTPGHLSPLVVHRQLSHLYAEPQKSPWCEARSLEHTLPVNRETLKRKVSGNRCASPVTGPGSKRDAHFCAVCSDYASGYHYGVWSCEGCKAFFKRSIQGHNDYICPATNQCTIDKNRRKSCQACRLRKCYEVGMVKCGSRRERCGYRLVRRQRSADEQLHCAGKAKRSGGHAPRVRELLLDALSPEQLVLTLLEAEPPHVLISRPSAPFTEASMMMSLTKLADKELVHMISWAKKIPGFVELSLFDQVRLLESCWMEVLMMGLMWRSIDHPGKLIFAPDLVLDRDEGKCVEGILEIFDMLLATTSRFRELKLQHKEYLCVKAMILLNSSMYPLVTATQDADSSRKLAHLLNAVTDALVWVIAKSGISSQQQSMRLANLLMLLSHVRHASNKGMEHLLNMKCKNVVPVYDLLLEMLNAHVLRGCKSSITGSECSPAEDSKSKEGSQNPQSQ
# T2 sequence (P03372 whole entry): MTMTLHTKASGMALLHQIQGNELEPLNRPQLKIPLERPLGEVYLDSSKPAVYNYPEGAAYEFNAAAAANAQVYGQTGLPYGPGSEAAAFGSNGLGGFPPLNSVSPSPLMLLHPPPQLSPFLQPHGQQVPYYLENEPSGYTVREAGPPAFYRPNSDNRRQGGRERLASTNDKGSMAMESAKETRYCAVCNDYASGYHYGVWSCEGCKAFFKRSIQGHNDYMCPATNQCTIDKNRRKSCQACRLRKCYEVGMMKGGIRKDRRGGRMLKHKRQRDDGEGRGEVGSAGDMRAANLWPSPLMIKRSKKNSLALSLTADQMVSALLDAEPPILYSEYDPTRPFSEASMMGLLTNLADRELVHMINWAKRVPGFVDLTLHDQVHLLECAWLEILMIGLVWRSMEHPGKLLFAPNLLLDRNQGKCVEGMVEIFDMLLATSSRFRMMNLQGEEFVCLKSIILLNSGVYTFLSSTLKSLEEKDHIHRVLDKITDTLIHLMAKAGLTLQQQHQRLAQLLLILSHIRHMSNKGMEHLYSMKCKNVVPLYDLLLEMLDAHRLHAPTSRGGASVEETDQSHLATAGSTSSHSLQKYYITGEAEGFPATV
structure (smiles),measurement,setting,value
"CC/C(=C(\c1ccc(O)cc1)c1ccc(OCCN(C)C)cc1)c1ccccc1 [4-OHT, 4-hydroxytamoxifen, reference compound]","effect on ERβ-mediated induction of ERELUC by E2, DHEA, 7-oxo-DHEA, ADIOL and ADIONE",human ERβ [1],inhibited
"C[C@]12CC[C@H](O)CC1=CC(=O)[C@@H]1[C@@H]2CC[C@]2(C)C(=O)CC[C@@H]12 [7-oxo-DHEA, 3β-hydroxyandrost-5-ene-7,17-dione]",ERα binding / competition with E2,hERα [2],did not exhibit significant ERα binding
same,IC50,human ERβ [3],500 µM
same,ERα agonist activity in ERELUC assay,hERα [4]; HEK-293,lack of ERα-induced ERE-luciferase activity
same,ERELUC activity in ERβ-expressing HepG2 cells,human ERβ [1],significantly induced
same,CTSD (cathepsin D) expression,[5],no activation
same,PGR (PR) expression,[5],no activation
same,TFF1 (pS2) expression,[5],increased
same,NRF-1 mRNA expression,NRF1 (NRF-1) expression,low induction
same,MCF-7 cell proliferation,[6],increased
"C[C@]12CCC(=O)C=C1CC[C@@H]1[C@@H]2CC[C@]2(C)C(=O)CC[C@@H]12 [androst-4-ene-3,17-dione]",ERELUC activity in ERβ-expressing HepG2 cells,human ERβ [1],effective in activating
"CC(O)(CS(=O)(=O)c1ccc(F)cc1)C(=O)Nc1ccc(C#N)c(C(F)(F)F)c1 (stereo not drawn) [Bicalutamide, reference compound]","effect on DHEA-, 7-oxo-DHEA-, ADIOL- and ADIONE-induced proliferation","[6]; 10 µM bicalutamide, pretreatment 4 h, also blocked DHT-induced proliferation",inhibited
"C[C@]12CC[C@H](O)C[C@@H]1C[C@H](O)[C@@H]1[C@@H]2CC[C@]2(C)C(=O)CC[C@@H]12 [7β-OH-EpiA, 7β-Hydroxy-epiandrosterone]",E2-induced proliferation of MCF-7 cells,"MCF-7 cells; 1–100 nM, no dose-response detected",inhibited
same,"cell proliferation, compound alone",MCF-7 cells; 1–100 nM,did not affect
"C[C@]12CC[C@H](O)C[C@@H]1C[C@@H](O)[C@@H]1[C@@H]2CC[C@]2(C)C(=O)CC[C@@H]12 [7α-OH-EpiA, 7α-hydroxy-epiandrosterone]",MCF-7 proliferation,MCF-7 cells; 1–100 nM,inhibited
"COc1cccc(-c2cc(=O)c3ccccc3o2)c1N [PD998059, reference compound]","effect on DHEA or metabolite-induced ERELUC activity, ERα",hERα [4]; [12],did not block
same,"effect on DHEA or metabolite-induced ERELUC activity, ERβ",human ERβ [1]; [12],did not block
"C[C@]12CC[C@H](O)CC1=CC[C@@H]1[C@@H]2[C@@H](O)C[C@]2(C)C(=O)CC[C@@H]12 [11β-OH-DHEA, 11β-hydroxy-DHEA]",ERELUC activity in ERβ-expressing HepG2 cells,human ERβ [1],suppressed
"CC[C@@H]1Cc2cc(O)ccc2C2=C1c1ccc(O)cc1C[C@H]2CC (relative stereo) [R,R-THC, R,R-cis-diethyl tetrahydrochrysene, reference compound]","effect on ERβ-mediated induction of ERELUC by E2, DHEA, 7-oxo-DHEA, ADIOL and ADIONE",human ERβ [1],significantly inhibited
"C[C@]12CC[C@@H]3c4ccc(O)cc4C[C@@H](CCCCCCCCC[S+]([O-])CCCC(F)(F)C(F)(F)F)[C@H]3[C@@H]1CC[C@@H]2O (stereo partly drawn) [ICI 182,780, reference compound]","effect on ERα-mediated induction of ERELUC by E2, DHEA, DHEA-S and ADIOL","hERα [4]; 1 µM ICI, 100 nM 4-OHT, 1 µM R,R-THC, 5 µM sterol, Fig. 3A",inhibited
same,"effect on ERβ-mediated induction of ERELUC by E2, DHEA, 7-oxo-DHEA, ADIOL and ADIONE",human ERβ [1],inhibited
same,effect on E2-induced stimulation of MCF-7 cell proliferation,"[6]; 100 nM ICI 182,780, pretreatment 6 h",inhibited
same,effect on the proliferative activity of 10 nM DHEA in MCF-7 cells,MCF-7 cells,lack of inhibition
"C=C1C[C@@H]2[C@H](CC[C@]3(C)C(=O)CC[C@@H]23)[C@@]2(C)C=CC(=O)C=C12 [exemestane, reference compound]","effect on E2, DHEA or ADIOL induced ERELUC activity in ERα-transfected cells","hERα [4]; 100 nM exemestane, HEK-293, Fig. 4A",did not significantly inhibit
same,effect on ADIONE activation of ERβ,"human ERβ [1]; 100 nM exemestane, HepG2, Fig. 4B",no effect
same,inhibition at 0.1 µM,"human ERβ [1]; HepG2, read-out: inhibition of DHEA-, ADIOL- and 7-oxo-DHEA-induced ERELUC reporter activity",20 to 30%
same,effect on proliferation with ADIOL or ADIONE,"[6]; 100 nM exemestane, 5 µM sterol, 48 h",no inhibitory activity
"Clc1ccc(COC(Cn2ccnc2)c2ccc(Cl)cc2Cl)c(Cl)c1 (stereo not drawn) [miconazole, reference compound]",inhibition of [3H] E2 binding to recombinant human ERα,"hERα [2]; 100 µM competitor, Supplemental Fig. 2",15%
same,ERα binding / competition with E2,hERα [2],did not compete
same,effect on DHEA-stimulated ERα transcriptional activity,"hERα [4]; 5 µM miconazole, HEK-293",did not inhibit
same,effect on ERα activation of ERELUC in response to E2 and ADIOL,"hERα [4]; 5 µM miconazole, HEK-293, Fig. 4A",reduced
same,"effect on ERβ activation of ERELUC in response to E2, ADIOL, DHEA, ADIONE and 7-oxo-DHEA","human ERβ [1]; 5 µM miconazole, HepG2, Fig. 4B",reduced
same,effect on E2-induced ERα-ERE-LUC activity,"hERα [7]; 10 nM E2, miconazole pretreatment",inhibited
same,increase of basal ERE-luciferase reporter activity,hERα [7]; miconazole pretreatment,~ 0.8 fold
same,"effect on MCF-7 cell proliferation induced by E2, DHEA, ADIOL and ADIONE","[6]; 5 µM miconazole, 48 h",inhibited
"C[C@]12CCC(=O)C[C@@H]1CC[C@@H]1[C@@H]2CC[C@]2(C)[C@@H](O)CC[C@@H]12 [DHT, dihydrotestosterone, reference compound]",MCF-7 cell proliferation,[6],concentration-dependent increase
same,proliferation of MCF-7 cells,MCF-7 cells,stimulated proliferation
C[C@]12CC[C@H]3[C@@H](CCC4=CC(=O)CC[C@@]43C)[C@@H]1CC[C@@H]2O [testosterone],proliferation of MCF-7 cells,MCF-7 cells,stimulated proliferation
"C[C@]12CC[C@H](O)CC1=CC[C@@H]1[C@@H]2CC[C@]2(C)C(=O)[C@H](O)C[C@@H]12 [16α-OH-DHEA, 16α-hydroxy-DHEA]",ERα agonist activity in ERELUC assay,hERα [4]; HEK-293,lack of ERα-induced ERE-luciferase activity
same,ERELUC activity in ERβ-expressing HepG2 cells,human ERβ [1],increased
same,CTSD (cathepsin D) expression,[5],no activation
same,PGR (PR) expression,[5],no activation
same,TFF1 (pS2) expression,[5],increased
same,NRF-1 mRNA expression,NRF1 (NRF-1) expression,statistically significant increase; also recorded: low induction
"C[C@]12CC[C@H](O)C[C@@H]1CC[C@@H]1[C@@H]2CC[C@]2(C)[C@@H](O)CC[C@@H]12 [3β-Adiol, 5α-androstane-3β,17β-adiol]",NRF-1 mRNA expression,NRF1 (NRF-1) expression,increased; also recorded: low induction
same,proliferation of MCF-7 cells,MCF-7 cells,stimulated proliferation
same,"ERE-luciferase activity, ERα",ERα [8],activated
same,"ERE-luciferase activity, ERβ",ERβ [9],activated
"C[C@]12CC[C@@H]3c4ccc(O)cc4CC[C@H]3[C@@H]1CC[C@@H]2O [E2, 17β-estradiol, reference compound]",CTSD (cathepsin D) expression,[5],increased
same,PGR (PR) expression,[5],increased
same,TFF1 (pS2) expression,[5],increased
same,NRF-1 mRNA expression,NRF1 (NRF-1) expression,statistically significant increase; also recorded: low induction
"C[C@]12CC[C@H]3[C@@H](CC=C4C[C@@H](O)CC[C@@]43C)[C@@H]1CC[C@@H]2O [ADIOL, androst-5-ene-3β,17β-diol]",ERELUC activity in ERβ-expressing HepG2 cells,human ERβ [1],significantly induced
same,TFF1 (pS2) expression,[5],increased
same,NRF-1 mRNA expression,NRF1 (NRF-1) expression,statistically significant increase
same,MCF-7 cell proliferation,[6],increased
same,proliferation of MCF-7 cells,MCF-7 cells,stimulated proliferation
same,MCF-7 cell growth,"MCF-7 cells; DHEA 0.5 µM, ADIOL 2 nM",stimulated
same,MCF-7 cell proliferation,MCF-7 cells,increased cell proliferation
same,"ERE-luciferase activity, ERα",ERα [8],activated
same,"ERE-luciferase activity, ERβ",ERβ [9],activated
"C[C@]12CC[C@H](OS(=O)(=O)O)CC1=CC[C@@H]1[C@@H]2CC[C@]2(C)C(=O)CC[C@@H]12 [DHEA-S, DHEA 3β-sulfate]",IC50,"hERα [2]; read-out: IC50 for ERα, competition with 30 nM [3H] E2, Fig. 6A",100 to 500 µM
same,induction of ERELUC activity via ERα,"hERα [4]; 5 µM, 24 h, HEK-293, Fig. 1B",around 9 fold
same,induction of ERELUC expression with ERα,"hERα [4]; concentration-response, at higher concentrations, HEK-293, Fig. 2A",~ 2 fold
same,CTSD (cathepsin D) expression,[5],increased
same,PGR (PR) expression,[5],increased
same,TFF1 (pS2) expression,[5],increased
same,MCF-7 cell proliferation,[6],increased
same,MCF-7 cell proliferation,MCF-7 cells,increased cell proliferation
"C[C@]12CCC(=O)CC1=CC[C@@H]1[C@@H]2CC[C@]2(C)C(=O)CC[C@@H]12 [ADIONE, androst-5-ene-3,17-dione]",IC50,human ERβ [3],50 µM and ~50 µM
same,ERELUC activity in ERβ-expressing HepG2 cells,human ERβ [1],significantly induced
same,ERELUC activity in ERβ-expressing HepG2 cells,"human ERβ [1]; listed as androst-5-ene-3,17-dione",effective in activating
same,NRF-1 mRNA expression,NRF1 (NRF-1) expression,did not increase
same,MCF-7 cell proliferation,[6],increased
"C[C@]12CC[C@H](O)CC1=C[C@@H](O)[C@@H]1[C@@H]2CC[C@]2(C)C(=O)CC[C@@H]12 [7α-OH-DHEA, 7α-hydroxy-DHEA]",ERα agonist activity in ERELUC assay,hERα [4]; HEK-293,lack of ERα activity
same,ERELUC activity in ERβ-expressing HepG2 cells,human ERβ [1],increased
same,CTSD (cathepsin D) expression,[5],no induction
same,PGR (PR) expression,[5],no induction
same,TFF1 (pS2) expression,[5],no induction
same,NRF-1 mRNA expression,NRF1 (NRF-1) expression,low induction
same,NRF-1 mRNA expression,NRF1 (NRF-1) expression; listed as α-OH-DHEA,statistically significant increase
same,"ERE-TK-luciferase reporter activity, ERα",ERα [10],stimulated activity
same,"ERE-TK-luciferase reporter activity, ERβ",ERβ [11],stimulated activity
"C[C@]12CC[C@H](O)CC1=C[C@H](O)[C@@H]1[C@@H]2CC[C@]2(C)C(=O)CC[C@@H]12 [7β-OH-DHEA, 7β-hydroxy-DHEA]",ERELUC activity in ERβ-expressing HepG2 cells,human ERβ [1],suppressed
